Drawing on ChEMBL document CHEMBL1148509, “Design and semisynthesis of novel fredericamycin A derivatives with an improved antitumor profile” (Bioorg Med Chem Lett, 2006), this text covers inhibition, IC70 and Activity for 27 compounds.

Data set [1] deals with Panel (10 carcinoma cell lines). Put plainly: Inhibition of cell viability of panel of 10 cell lines (LCL H460, MACL MCF7, LXFL 529L, LXFA 629L, MEXF 462NL, MEXF 514L, MAXF 401NL, RXF 944L, RXF 486L, UXF 1138L) at 1 ug/mL. The data set is classed as functional. The note with it: Homo sapiens.
The subject of data set [2] is Panel (12 tumour cell lines). Put plainly: Cytotoxicity against panel of 12 cell lines (LCL H460, MACL MCF7, LXFL 529L, LXFA 629L, MEXF 462NL, MEXF 514L, MAXF 401NL, RXF 944L, RXF 486L, UXF 1138L, PR PC3M, PRCL 22RV1). The data set is classed as functional. The note with it: Homo sapiens.
For data set [3], the system named is Mus musculus. Put plainly: Toxicity in nude mouse xenografted with human UXF1138 at 3 mg/kg/day. The format is organism-based. The note with it: in vivo. For orientation: In xenograft studies the graft and the host belong to different species.
Data set [4] concerns Mus musculus. Put plainly: Toxicity in nude mouse xenografted with human UXF1138 at 1 mg/kg/day. The data set is classed as organism-based. The note with it: in vivo.
Data set [5] relates to Mus musculus. Put plainly: Decrease in body weight of nude mouse xenografted with human UXF1138 at 0.15 mg/kg/day, ip after 7 days. The data set is classed as functional. On the set-up: scale not given: the % may be the effect or the level left. Particulars: route intraperitoneal.
Data set [6] has as its system Mus musculus. Put plainly: Toxicity in nude mouse xenografted with human UXF1138 at 0.3 mg/kg/day. The format is organism-based. The note with it: in vivo.
The subject of another data set is UXF1138. Put plainly: Antitumor activity against human UXF1138 cell line xenografted in nude mouse at 0.15 mg/kg/day, ip after 7 days. The note with it: route intraperitoneal.

With `COC1=CC(=O)c2c(O)c3c(c(O)c2C1=O)C(=O)[C@]1(CCc2c1c(O)c1c(O)nc(/C=N/OCCN4CCOCC4)cc1c2Br)C3=O`, the inhibition (usually the drop in the measured response relative to a control, in per cent) at 1 µg/mL in data set [1] amounted to 88%. In data set [2], the IC70 (commonly the point of the concentration-response curve where the effect stands at 70%) came to 0.101 µM.

The compound `COC1=CC(=O)c2c(O)c3c(c(O)c2C1=O)C(=O)[C@]1(CCc2c1c(O)c1c(O)nc(C=O)cc1c2Cl)C3=O` returned an inhibition at 1 µg/mL in data set [1] of 25%.

As for `C/C=C/C=C/c1cc2c(Cl)c3c(c(O)c2c(O)n1)[C@@]1(CC3)C(=O)c2c(O)c3c(c(O)c2C1=O)C(=O)C(OC)=CC3=O`, in data set [1], 1 µg/mL produced 91% inhibition. The same compound displayed an IC70 in data set [2] of 0.014 µM.

Turning to `COC1=CC(=O)c2c(O)c3c(c(O)c2C1=O)C(=O)[C@]1(CCc2c1c(O)c1c(O)nc(C=O)cc1c2Br)C3=O`, the inhibition at 1 µg/mL in data set [1] worked out at 42%.

`C/C=C/C=C/c1cc2cc3c(c(O)c2c(O)n1)[C@@]1(CC3)C(=O)C2=C(C(=O)c3c(O)c(OCCN(C)C)cc(O)c3C2=O)C1=O` yielded an inhibition at 1 µg/mL in data set [1] of 94%. Further, in data set [2], the IC70 was found to be 1.02 µM.

The compound `COC1=CC(=O)c2c(O)c3c(c(O)c2C1=O)C(=O)[C@]1(CCc2cc4cc(C(O)C(O)C(O)C(C)O)nc(O)c4c(O)c21)C3=O` (stereo partly drawn) registered an inhibition at 1 µg/mL in data set [1] of 85%. Besides, the IC70 in data set [2] turned out to be 0.186 µM.

As to `COC1=CC(=O)c2c(O)c3c(c(O)c2C1=O)C(=O)[C@]1(CCc2c1c(O)c1c(O)nc(/C=N/N4CCN(C)CC4)cc1c2Br)C3=O`, the inhibition at 1 µg/mL in data set [1] worked out at 73%. In data set [2], the 70% effect level (IC70) was put at 0.658 µM.

On to `COC1=CC(=O)c2c(O)c3c(c(O)c2C1=O)C(=O)[C@]1(CCc2c1c(O)c1c(O)nc(/C=C/c4csc(NC(C)=O)n4)cc1c2Br)C3=O`, for which, in data set [1], 1 µg/mL produced 83% inhibition. This compound also gave a 70% effect concentration (IC70) in data set [2] of 0.512 µM.

Compound `COC1=CC(=O)c2c(O)c3c(c(O)c2C1=O)C(=O)[C@]1(CCc2c1c(O)c1c(O)nc(/C=N/OC(C)C)cc1c2Br)C3=O` came in with an inhibition at 1 µg/mL in data set [1] of 91%. The same compound showed an IC70 in data set [2] of 0.074 µM.

`COC1=CC(=O)c2c(O)c3c(c(O)c2C1=O)C(=O)[C@]1(CCc2c1c(O)c1c(O)nc(/C=C/c4csc(C)n4)cc1c2Br)C3=O` came in with an inhibition at 1 µg/mL in data set [1] of 85%. The compound further returned a 70% effect concentration (IC70) in data set [2] of 0.124 µM.

Turning to `C/C=C/C=C/c1cc2c(Br)c3c(c(O)c2c(O)n1)[C@@]1(CC3)C(=O)C2=C(C(=O)c3c(O)c(NC4CC4)cc(O)c3C2=O)C1=O`, at 1 µg/mL the inhibition in data set [1] was 97%. In data set [2], this compound displayed an IC70 of 0.096 µM.

Take `C/C=C/C=C/c1cc2c(Br)c3c(c(O)c2c(O)n1)[C@@]1(CC3)C(=O)C2=C(C(=O)c3c(O)c(NCCCC)cc(O)c3C2=O)C1=O`: in data set [1], testing at 1 µg/mL gave an inhibition of 94%. For the same compound, in data set [2], the 70% effect level (IC70) was put at 0.302 µM.

Regarding `C/C=C/C=C/c1cc2c(Br)c3c(c(O)c2c(O)n1)[C@@]1(CC3)C(=O)c2c(O)c3c(c(O)c2C1=O)C(=O)C(OCC)=CC3=O`, the inhibition at 1 µg/mL in data set [1] is 97%. Also, in data set [2], the IC70 is 0.16 µM.

In data set [1], `C/C=C/C=C/c1cc2cc3c(c(O)c2c(O)n1)[C@@]1(CC3)C(=O)C2=C(C(=O)c3c(O)c(N(C)C)cc(O)c3C2=O)C1=O` registered an inhibition at 1 µg/mL of 96%. For the same compound, it took 0.306 µM to reach the 70% level in data set [2] (IC70).

The compound `COC1=CC(=O)c2c(O)c3c(c(O)c2C1=O)C(=O)[C@]1(CCc2c1c(O)c1c(O)nc(/C=N/OCc4ccccc4)cc1c2Br)C3=O` returned an inhibition at 1 µg/mL in data set [1] of 91%. Further, the IC70 in data set [2] stood at 0.05 µM.

Compound `COC1=CC(=O)c2c(O)c3c(c(O)c2C1=O)C(=O)[C@]1(CCc2cc4cc(/C=C/C(C)=O)nc(O)c4c(O)c21)C3=O` registered an inhibition at 1 µg/mL in data set [1] of 59%.

`C/C=C/C=C/c1cc2cc3c(c(O)c2c(O)n1)[C@@]1(CC3)C(=O)C2=C(C(=O)c3c(O)c(N4CCOCC4)cc(O)c3C2=O)C1=O` had an inhibition at 1 µg/mL in data set [1] of 98%. Besides, in data set [2], the 70% effect level (IC70) was put at 0.077 µM.

`C/C=C/C=C/c1cc2c(I)c3c(c(O)c2c(O)n1)[C@@]1(CC3)C(=O)c2c(O)c3c(c(O)c2C1=O)C(=O)C(OC)=CC3=O` came in with an inhibition at 1 µg/mL in data set [1] of 93%. Besides, in data set [2], it took 0.011 µM to reach the 70% level (IC70). The Activity result is “Toxic” in the data set with Mus musculus [3]; “Toxic” in the data set with Mus musculus [4]; -3.1% in the data set with Mus musculus [5]; “Non-toxic” with Mus musculus [6]; 51% with UXF1138.

Turning to `COC1=CC(=O)c2c(O)c3c(c(O)c2C1=O)C(=O)[C@]1(CCc2c1c(O)c1c(O)nc(/C=C/c4csc(N)n4)cc1c2Br)C3=O`, the inhibition at 1 µg/mL in data set [1] is 77%. The compound further gave a 70% effect concentration (IC70) in data set [2] of 0.612 µM.

As to `C/C=C/C=C/c1cc2c(Br)c3c(c(O)c2c(O)n1)[C@@]1(CC3)C(=O)c2c(O)c3c(c(O)c2C1=O)C(=O)C(OC)=CC3=O`, in data set [1], the inhibition at 1 µg/mL worked out at 92%. This compound displayed a concentration for an effect of 70% (IC70) in data set [2] of 0.0081 µM.

As for `C/C=C/C=C/c1cc2c(F)c3c(c(O)c2c(O)n1)[C@@]1(CC3)C(=O)c2c(O)c3c(c(O)c2C1=O)C(=O)C(OC)=CC3=O`, in data set [1], testing at 1 µg/mL gave an inhibition of 91%. The same compound displayed a 70% effect concentration (IC70) in data set [2] of 0.02 µM.

In the case of `C/C=C/C=C/c1cc2cc3c(c(O)c2c(O)n1)[C@@]1(CC3)C(=O)C2=C(C(=O)c3c(O)c(NC(C)C)cc(O)c3C2=O)C1=O`, testing at 1 µg/mL in data set [1] gave an inhibition of 91%. The compound further came in with a concentration for an effect of 70% (IC70) in data set [2] of 0.634 µM.

In turn, `COC1=CC(=O)c2c(O)c3c(c(O)c2C1=O)C(=O)[C@]1(CCc2cc4cc(C=O)nc(O)c4c(O)c21)C3=O` came in with an inhibition at 1 µg/mL in data set [1] of 31%.

`CC[C@@]1(O)C(=O)OCc2c1cc1n(c2=O)Cc2cc3ccccc3nc2-1` [CAMPTOTHECIN] registered an IC70 in data set [2] of 0.0086 µM.

Compound `COc1cccc2c1C(=O)c1c(O)c3c(c(O)c1C2=O)C[C@@](O)(C(=O)CO)C[C@@H]3O[C@H]1C[C@H](N)[C@H](O)[C@H](C)O1` [DOXORUBICIN] returned an inhibition at 1 µg/mL in data set [1] of 91%. This compound also registered a 70% effect concentration (IC70) in data set [2] of 0.039 µM.

In the case of `C/C=C/C=C/c1cc2cc3c(c(O)c2c(=O)[nH]1)[C@@]1(CC3)C(=O)c2c(O)c3c(c(O)c2C1=O)C(=O)C(OC)=CC3=O` [FDM A], in data set [1], at 1 µg/mL the inhibition was 82%. The same compound displayed an IC70 in data set [2] of 0.517 µM.

For the compound `CC(=O)O[C@H]1C(=O)[C@@]2(C)[C@H]([C@H](OC(=O)c3ccccc3)[C@]3(O)C[C@H](OC(=O)[C@H](O)[C@@H](NC(=O)c4ccccc4)c4ccccc4)C(C)=C1C3(C)C)[C@]1(OC(C)=O)CO[C@@H]1C[C@@H]2O` [PACLITAXEL], the IC70 in data set [2] came to 0.0007 µM.
